Assay results: US5258362A, “Renin inhibiting compounds” (Abbott Laboratories, priority 1992, dated 1993)

Target: T1, human renal renin (Homo sapiens, UniProt P00797)
T1 construct: human renal renin, free from acid proteolytic activity; from tissue; host or cells: human kidney (from the word 'renal')
T1 sequence (P00797 67-406): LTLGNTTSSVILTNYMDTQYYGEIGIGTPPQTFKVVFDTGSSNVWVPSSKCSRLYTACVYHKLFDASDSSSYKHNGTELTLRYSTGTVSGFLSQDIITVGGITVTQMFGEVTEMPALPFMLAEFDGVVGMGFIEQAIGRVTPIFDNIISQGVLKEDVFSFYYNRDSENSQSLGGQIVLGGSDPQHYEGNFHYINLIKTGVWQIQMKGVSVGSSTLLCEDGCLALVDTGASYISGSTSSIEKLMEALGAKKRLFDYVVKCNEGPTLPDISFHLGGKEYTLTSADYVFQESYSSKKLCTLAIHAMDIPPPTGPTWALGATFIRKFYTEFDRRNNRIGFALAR
Assay: Inhibition of human renal renin in vitro (angiotensin I formed, measured by radioimmunoassay)
Format: biochemical
Conditions: human renal renin with renin substrate (human angiotensinogen), 37° C., pH 6.0
Method: At the end of the incubation, the amount of angiotensin I formed is measured by radioimmunoassay and the molar concentration required to cause 50% inhibition, expressed as the IC50 is calculated.

CCCCC(NC(=O)CCc1ccccc1)C(=O)N[C@@H](CC1CCCCC1)[C@@H](O)[C@H]1OC[C@@H]1CC (stereo partly drawn) [Example 186, Dihydrocinnamoyl-(nor)Leucine Amide of (1R,2S,2'S,3'S)-2-Amino-3-cyclohexyl-1-[3'-(ethyl)oxetan-2'-yl]-1-(hydroxy)propane]
IC50: 3.3 nM

CC[C@H]1CO[C@@H]1[C@H](O)[C@H](CC(C)C)NC(=O)C(Cc1cnc[nH]1)NC(=O)C(Cc1ccccc1)NC(=O)OC(C)(C)C (stereo partly drawn) [Example 171, Boc-Phe-His Amide of (1R,2S,2'S,3'S)-2-Amino-1-[3'-(ethyl)oxetan-2'-yl]-1-hydroxy-4-(methyl)pentane]
IC50: 0.5 nM

CC[C@H]1CO[C@@H]1[C@H](O)[C@H](CC1CCCCC1)NC(=O)C(C)NC(=O)[C@H](Cc1ccccc1)Cn1ccnc1 (stereo partly drawn) [Example 192, (2R)-2-Benzyl-3-(imidazol-1-yl)propionyl-alanine Acid of (1R,2S,2'S,3'S)-2-Amino-3-cyclohexyl-1-[3'-(ethyl)oxetan-2'-yl]-1-(hydroxy)propane]
IC50: 3.4 nM

CCCC[C@H](O[C@@H](Cc1ccccc1)C(=O)N1CCC(OCOC)CC1)C(=O)N[C@@H](CC1CCCCC1)[C@@H](O)[C@H]1OC[C@@H]1C(C)C [Example 72, (2S)-[(1S)-[(Methoxymethoxy)piperidin-1-yl]carbonyl-2-phenylethoxy]hexanoicAcid Amide of (1R,2S,2'S,3'S)-2-Amino-3-cyclohexyl-1-[3'-(isopropyl)oxetan-2'-yl]-1-(hydroxy)propane]
IC50: 0.8 nM

CCOC(=O)NC(Cc1ccccc1)C(=O)NC(CC(C)C)C(=O)N[C@@H](CC1CCCCC1)[C@@H](O)[C@H]1OC[C@@H]1CC (stereo partly drawn) [Example 164, Ethoxycarbonyl-Phe-Leu Amide of (1R,2S,2'S,3'S)-2-Amino-3-cyclohexyl-1-[3'-(ethyl)oxetan-2'-yl]-1-(hydroxy)propane]
IC50: 0.46 nM

CC[C@H]1CO[C@@H]1[C@H](O)[C@H](CC1CCCCC1)NC(=O)C(Cc1cnc[nH]1)NC(=O)C(Cc1ccccc1)NC(=O)OC(C)(C)C (stereo partly drawn) [Example 40, Boc-Phe-His Amide of (1R,2S,2'S,3'S)-2-Amino-3-cyclohexyl-1-[3'-(ethyl)oxetan-2'-yl]-1-(hydroxy)propane]
IC50: 0.47 nM

C[C@H]1CO[C@@H]1[C@H](O)[C@H](CC1CCCCC1)NC(=O)C(Cc1cnc[nH]1)NC(=O)C(Cc1ccccc1)NC(=O)OC(C)(C)C (stereo partly drawn) [Example 46, Boc-Phe-His Amide of (1R,2S,2'S,3'S)-2-Amino-3-cyclohexyl-1-hydroxy-1-[3'-(methyl)oxetan-2'-yl]propane]
IC50: 0.51 nM

CC(C)C[C@H]1CO[C@@H]1[C@H](O)[C@H](CC1CCCCC1)NC(=O)[C@H](Cc1cnc[nH]1)NC(=O)[C@H](Cc1ccccc1)NC(=O)OC(C)(C)C [Example 44, Boc-Phe-His Amide of (1R,2S,2'S,3'S)-2-Amino-3-cyclohexyl-1-hydroxy-1-[3'-(isobutyl)oxetan-2'-yl]propane]
IC50: 1.1 nM

CC(C)[C@H]1CO[C@@H]1[C@H](O)[C@H](CC1CCCCC1)NC(=O)[C@H](Cc1cnc[nH]1)NC(=O)[C@H](Cc1ccccc1)NC(=O)OC(C)(C)C [Example 41, Boc-Phe-His Amide of (1R,2S,2'S,3'S)-2-Amino-3-cyclohexyl-1-hydroxy-1-[3'-(isopropyl)oxetan-2'- yl]propane]
IC50: 0.61 nM

CC[C@H]1CO[C@@H]1[C@H](O)[C@H](CC1CCCCC1)NC(=O)[C@H](Cc1cscn1)NC(=O)[C@@H](CC(=O)N1CCOCC1)Cc1ccccc1 [Example 69, (2R)-2-Benzyl-3-(morpholinocarbonyl)propionyl-(4-thiazolyl)alanine Amide of (1R,2S,2'S,3'S)-2-Amino-3-cyclohexyl-1-[3'-(ethyl)oxetan-2'-yl]-1-(hydroxy)propane]
IC50: 0.25 nM

CCCC[C@H](NC(=O)[C@@H](CC(=O)N1CCN(C)CC1)Cc1ccccc1)C(=O)N[C@@H](CC1CCCCC1)[C@@H](O)[C@H]1OC[C@@H]1CC [Example 155, (2R)-2-Benzyl-3-(4-methylpiperazin-1-ylcarbonyl)propionyl(nor)Leucine Amide of (1R,2S,2'S,3'S)-2-Amino-3-cyclohexyl-1-[3'-(ethyl)oxetan-2'-yl]-1-(hydroxy)propane]
IC50: 0.37 nM

CC[C@H]1CO[C@@H]1[C@H](O)[C@H](CC1CCCCC1)NC(=O)C(C)NC(=O)[C@H](Cc1ccccc1)CS(=O)(=O)N1CCN(C)CC1 (stereo partly drawn) [Example 191, (2S) 2-Benzyl-3-(1-methyl-piperazin-4-ylsulfonyl)propionylalanine Amide of (1R,2S,2'S,3'S)-2-Amino-3-cyclohexyl-1-[3'-(ethyl)oxetan-2'-yl]-1-(hydroxy)propane]
IC50: 0.58 nM

CCCC[C@H](NC(=O)C(Cc1ccccc1)Cc1ccccc1)C(=O)N[C@@H](CC1CCCCC1)[C@@H](O)[C@H]1OC[C@@H]1CC [Example 188, Dibenzylacetyl-(nor)Leucine Amide of (1R,2S,2'S,3'S)-2-Amino-3-cyclohexyl-1-[3'-(ethyl)oxetan-2'-yl]-1-(hydroxy)propane]
IC50: 0.68 nM

CC(C)(C)OC(=O)N[C@@H](Cc1ccccc1)C(=O)N[C@@H](Cc1cnc[nH]1)C(=O)N[C@@H](CC1CCCCC1)[C@@H](O)[C@H]1OCC1(C)C [Example 48, Boc-Phe-His Amide of (1R,2S,2'S)-2-Amino-3-cyclohexyl-1-[3',3'-(dimethyl)oxetan-2'-yl]-1-(hydroxy)propane]
IC50: 1 nM

CC[C@H]1CO[C@@H]1[C@H](O)[C@H](CC1CCCCC1)NC(=O)[C@H](CC(C)C)NC(=O)[C@@H](CC(=O)N1CCN(C)CC1)Cc1ccccc1 [Example 163, (2R)-2-Benzyl-3-(4-methylpiperazin-1-ylcarbonyl)propionyl-leucine Amide of (1R,2S,2'S,3'S)-2-Amino-3-cyclohexyl-1-[3'-(ethyl)oxetan-2'-yl]-1-(hydroxy)propane]
IC50: 0.51 nM

CC[C@H]1CO[C@@H]1[C@H](O)[C@H](CC1CCCCC1)NC(=O)C(Cc1cscn1)NC(=O)[C@@H](CC(=O)N1CCN(C)CC1)Cc1ccccc1 (stereo partly drawn) [Example 70, (2R)-2-Benzyl-3-[(4-methylpiperazin-1-yl)carbonyl]propionyl-(4-thiazolyl)alanine Amide of (1R,2S,2'S,3'S)-2-Amino-3-cyclohexyl-1-[3'-(ethyl)oxetan-2'-yl]-1-(hydroxy)propane]
IC50: 0.2 nM

CC[C@H]1CO[C@@H]1[C@H](O)[C@H](CC1CCCCC1)NC(=O)C(Cc1cscn1)NC(=O)[C@H](Cc1ccccc1)CS(=O)(=O)N1CCN(C)CC1 (stereo partly drawn) [Example 68, (2S) 2-Benzyl-3-(1-methyl-piperazin-4-ylsulfonyl)propionyl-(4-thiazolyl)alanineAmide of (1R,2S,2'S,3'S)-2-Amino-3-cyclohexyl-1-[3'-(ethyl)oxetan-2'-yl]-1-(hydroxy)propane]
IC50: 0.19 nM

CC[C@H]1CO[C@@H]1[C@H](O)[C@H](CC(C)C)NC(=O)C(Cc1cscn1)NC(=O)[C@H](Cc1ccccc1)CS(=O)(=O)N1CCN(C)CC1 (stereo partly drawn) [Example 178, (2S) 2-Benzyl-3-(1-methyl-piperazin-4-ylsulfonyl)propionyl-(4-thiazolyl)alanineAmide of (1R,2S,2'S,3'S)-2-Amido-1-[3'-(ethyl)oxetan-2'-yl]-1-hydroxy-4-(methyl)pentane]
IC50: 0.38 nM

CC[C@H]1CO[C@@H]1[C@H](O)[C@H](CC1CCCCC1)NC(=O)[C@H](CC(C)C)NC(=O)C(Cc1ccccc1)Cc1ccccc1 [Example 183, Dibenzylacetyl-Leucine Amide of (1R,2S,2'S,3'S)-2-Amino-3-cyclohexyl-1-[3'-(ethyl)oxetan-2'-yl]-1-(hydroxy)propane]
IC50: 1.2 nM

CCC[C@H]1CO[C@@H]1[C@H](O)[C@H](CC1CCCCC1)NC(=O)C(Cc1cnc[nH]1)NC(=O)C(Cc1ccccc1)NC(=O)OC(C)(C)C (stereo partly drawn) [Example 43, Boc-Phe-His Amide of (1R,2S,2'S,3'S)-2-Amino-3-cyclohexyl-1-hydroxy-1-[3'-(propyl)oxetan-2'-yl]propane]
IC50: 0.38 nM

CCCC[C@H](NC(=O)[C@H](Cc1ccccc1)Cn1ccnc1)C(=O)N[C@@H](CC1CCCCC1)[C@@H](O)[C@H]1OC[C@@H]1CC [Example 189, (2R)-2-Benzyl-3-(imidazol-1-yl)propionyl-(nor)Leucine Amide of (1R,2S,2'S,3'S)-2-Amino-3-cyclohexyl-1-[3'-(ethyl)oxetan-2'-yl]-1-(hydroxy)propane]
IC50: 0.46 nM

CCCC[C@H](NC(=O)C(Cc1ccccc1)Cn1ccnc1)C(=O)N[C@@H](CC1CCCCC1)[C@@H](O)[C@H]1OC[C@@H]1CC (mixture of isomers) [Example 154, (2RS)-2-Benzyl-3-(imidazol-1-yl)propionyl-(nor)Leucine Amide of (1R,2S,2'S,3'S)-2-Amino-3-cyclohexyl-1-[3'-(ethyl)oxetan-2'-yl]-1-(hydroxy)propane]
IC50: 0.7 nM

CC(C)(C)OC(=O)NC(Cc1ccccc1)C(=O)NC(Cc1cnc[nH]1)C(=O)N[C@@H](CC1CCCCC1)[C@@H](O)[C@@H]1CCO1 (stereo partly drawn) [Example 45, Boc-Phe-His Amide of (1R,2S,2'S)-2-Amino-3-cyclohexyl-1-hydroxy-1-(oxetan-2'-yl)propane]
IC50: 1.2 nM

CC[C@H]1CO[C@@H]1[C@H](O)[C@H](CC1CCCCC1)NC(=O)[C@H](CC(C)C)NC(=O)[C@H](Cc1ccccc1)Cn1ccnc1 [Example 182, (2R)-2-Benzyl-3-(imidazol-1-yl)propionyl-Leucine Amide of (1R,2S,2'S,3'S)-2-Amino-3-cyclohexyl-1-[3'-(ethyl)oxetan-2'-yl]-1-(hydroxy)propane]
IC50: 0.65 nM
